Ki data for 2 compounds are collected here from patent US20120258873A1 (priority 2011, published 2012).

pKi: −log10 of the molar value.

What all share (type): biochemical
Experiment [1] concerns the target JEA1 (derivative of Pseudomonas fluorescens KARI) (Pseudomonas fluorescens, UniProt Q4K608). Briefly: Inhibition of purified KARI by DHMB, spectrophotometric NADPH oxidation assay. To be noted: competitive vs. acetolactate, 30° C., pH 6.8, NADPH 0.2 mM, read-out: KI Values for KARI Inhibition by DHMB Isomers.
Protocol: (§1) The buffer was 0.1 M K^+ Hepes, pH 6.8, containing 10 mM MgCl2 and 1 mM EDTA. NADPH was present at 0.2 mM, and racemic acetolactate was present at either 3 mM or 0.725 mM (S) isomer. The rate of NADPH oxidation in the presence and absence of either fast or slow DHMB was measured. Vmax for each sample was calculated from the observed rate and the known acetolactate Km using the Michaelis-Menten equation. A volumetric Ki was estimated for each measurement in the presence of DHMB using the Michaelis-Menten equation as modified for competitive inhibition vs. acetolactate (the Km term in the MM equation is multiplied by (1+[I]/Ki), and the equation is solved for Ki. The results were converted to mM upon completion of the NMR experiment and are shown in Table 5.
Experiment [2] concerns the target K9D3 (derivative of Anaerostipes caccae KARI) (Anaerostipes caccae, UniProt B0MCX7, S56A/S58D). The description is as above. To be noted: competitive vs. acetolactate, 30° C., pH 6.8, NADPH 0.2 mM, read-out: KI Values for KARI Inhibition by DHMB Isomers.
Protocol: as §1
Experiment [3] addresses dihydroxyacid dehydratase (DHAD) (Streptococcus mutans serotype c, UniProt Q8DRT7). Briefly: Inhibition of DHAD conversion of DHIV to 2-KIV by DHMB, colorimetric assay. The settings on record: read-out: inhibition constants (Ki) for DHAD. The procedure:
101: 999-1004 (1993). The assay took place in a 2 mL Eppendorf tube placed in a heating block maintained at 30° C. […] The assay was initiated by adding a 10× concentrated stock of substrate. Samples were removed (0.35 mL) at times 0.1 and 30 minutes, and the reaction was stopped by mixing into 0.35 mL 0.1 N HCl with 0.05% 2,4-dinitrophenylhydrazine (Aldrich) in a second Eppendorf tube. After incubating 30 minutes at room temperature, 0.35 mL of 4N NaOH was added to the mixture, mixed, and centrifuged at 15,000×G for 2 minutes in a centrifuge (Beckman-Coulter Microfuge 18). The absorbance of the solution at 540 nm was then measured in a 1 cm pathlength cuvette using a Cary 300 Bio UV-Vis spectrophometer (Varian). Based on a standard curve using authentic 2-KIV (Fluka), 1 OD absorbance at 540 nm is produced by 0.28 mM 2-KIV. […] Both forms of DHMB behaved liked competitive inhibitors of DHIV. […] The fast and slow isomers of DHMB had calculated inhibition constants of 7 mM and 5 mM, respectively.

Chain of K9D3 (derivative of Anaerostipes caccae KARI) (B0MCX7 1-343, stated change not applied): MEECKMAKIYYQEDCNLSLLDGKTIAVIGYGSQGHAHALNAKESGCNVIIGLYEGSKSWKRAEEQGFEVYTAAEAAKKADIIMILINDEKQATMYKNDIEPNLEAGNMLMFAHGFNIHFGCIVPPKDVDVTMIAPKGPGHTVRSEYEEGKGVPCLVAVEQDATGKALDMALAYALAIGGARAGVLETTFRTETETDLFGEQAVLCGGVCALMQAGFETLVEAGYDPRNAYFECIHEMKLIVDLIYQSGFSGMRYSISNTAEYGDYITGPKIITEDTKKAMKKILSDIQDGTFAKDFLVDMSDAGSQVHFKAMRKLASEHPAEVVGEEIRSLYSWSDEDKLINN
Chain of JEA1 (derivative of Pseudomonas fluorescens KARI) (Q4K608 whole entry): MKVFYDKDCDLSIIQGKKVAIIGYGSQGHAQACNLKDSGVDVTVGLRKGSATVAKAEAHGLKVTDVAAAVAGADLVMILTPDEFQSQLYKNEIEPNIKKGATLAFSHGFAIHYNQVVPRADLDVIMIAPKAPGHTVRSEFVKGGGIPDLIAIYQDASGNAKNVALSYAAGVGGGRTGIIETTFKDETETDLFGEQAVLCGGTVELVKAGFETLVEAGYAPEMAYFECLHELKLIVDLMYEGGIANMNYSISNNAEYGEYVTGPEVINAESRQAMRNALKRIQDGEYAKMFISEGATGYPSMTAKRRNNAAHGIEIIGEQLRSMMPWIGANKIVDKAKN
Chain of dihydroxyacid dehydratase (DHAD) (Q8DRT7 whole entry): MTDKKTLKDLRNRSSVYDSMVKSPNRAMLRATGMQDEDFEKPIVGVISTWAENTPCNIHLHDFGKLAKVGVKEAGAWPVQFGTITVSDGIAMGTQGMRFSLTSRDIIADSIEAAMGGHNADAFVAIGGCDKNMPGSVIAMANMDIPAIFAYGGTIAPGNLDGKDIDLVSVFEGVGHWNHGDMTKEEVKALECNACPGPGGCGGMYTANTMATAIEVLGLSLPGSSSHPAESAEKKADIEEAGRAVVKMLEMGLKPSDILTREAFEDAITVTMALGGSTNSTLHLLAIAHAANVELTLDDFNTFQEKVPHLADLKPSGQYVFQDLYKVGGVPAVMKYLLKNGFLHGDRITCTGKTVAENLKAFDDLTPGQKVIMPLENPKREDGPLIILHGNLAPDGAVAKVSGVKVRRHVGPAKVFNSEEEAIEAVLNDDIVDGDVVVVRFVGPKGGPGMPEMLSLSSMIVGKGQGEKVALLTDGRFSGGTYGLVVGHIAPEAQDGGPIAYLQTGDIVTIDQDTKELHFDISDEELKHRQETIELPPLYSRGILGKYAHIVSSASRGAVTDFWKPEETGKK

For orientation: pKi means the Ki on a negative log10 scale, so that one unit is a factor of ten. Regarding `C[C@H](O)[C@](C)(O)C(=O)O` [Fast DHMB, 2,3-dihydroxy-2-methyl butyrate], the pKi in experiment [1] was 3.64; in experiment [2], 3.52; in experiment [3], 2.15.

Consider `C[C@@H](O)[C@](C)(O)C(=O)O` [Slow DHMB, 2,3-dihydroxy-2-methyl butyrate], for which the pKi in experiment [1] was 3.64; in experiment [2], 3.70; in experiment [3], 2.30.
